“Also recorded” adds a separate entry of the source. Counter-ions that a name gives are not always drawn. No end group written: not given here.
Assays:
[1] = tested on: Betta splendens erythrophores; format: cell-based
[2] = tested on: erythrophores; format: cell-based
[3] = tested on: chromatophores
[4] = tested on: chromatophore/protozoal cell; format: cell-based
[5] = tested on: chromatophore/neuronal cell; format: cell-based
[6] = tested on: melanophores; format: cell-based
[7] = tested on: chromatophore/bacterial cell; format: cell-based
[8] = tested on: Betta chromatophores; format: cell-based
[9] = tested on: Betta splendens chromatophores; format: cell-based
[10] = tested on: chromatophores; format: cell-based
[11] = tested on: Hemichromis bimaculatus chromatophores; format: cell-based
[12] = tested on: iridophores; format: cell-based
[13] = tested on: chromatophores; assay: cells; conditions: read-out: Threshold concentration PPM
[14] = tested on: chromatophore/fungal cell; format: cell-based

## COC(=O)C1=C(C)NC(C)=C([N+](=O)[O-])C1c1ccccc1C(F)(F)F (stereo not drawn) [Bay K8644]
[1]
  erythrophore pigment response to direct application: neither the aggregation nor dispersion of erythrophore pigment

## Clc1cccc(Cl)c1N=C1NCCN1 [Clonidine]
[2]
  Chromatophore response Erythrophores: Aggr.

## c1ccc2cc3c(ccc4ccccc43)cc2c1 [1,2-Benzanthracene]
[3]
  Chromatophore response (cell spans the chromatophore columns, cell type not assigned): Imp.

## C[C@H](CCC(=O)O)C[C@H](C)C[C@H](C)C(=O)/C=C(\O)[C@H](C)C[C@H](C)C/C=C/[C@@H](C)[C@@H](O)[C@@H](C)[C@@H](O)C[C@@H]1CC[C@@](C)([C@H]2CC[C@@](C)([C@@H](C)O)O2)O1 [Ionomycin]
[1]
  erythrophore pigment response: slight, but sustained aggregation

## Cc1ncc([N+](=O)[O-])n1CCO [Metronidazole]
[4]
  Chromatophore response 2-Cell Cytosensor (second cell type included): Normal

## melanophore concentrating hormone [MCH]
[3]
  Chromatophore response (cell spans the chromatophore columns, cell type not assigned): Aggr.
  Threshold concentration PPB: X (key: X=1 to 100 PPB; XX=100 to 1000 PPB)

## Latrotoxin
[2]
  Chromatophore response Erythrophores: Aggr
[5]
  Chromatophore response 2-Cell Cytosensor (second cell type included): Aggr.

## C=CC[C@@H](CC/C(C)=C/C=C/CC/C=C\[C@@H]1CSC([C@@H]2C[C@@H]2C)=N1)OC [Curacin A]
[3]
  Chromatophore response (cell spans the chromatophore columns, cell type not assigned): Aggr. and Imp. (FS)

## CC(COc1ccccc1)N(CCCl)Cc1ccccc1 (stereo not drawn) [Phenoxybenzamine, Phenoxy-benzamine]
[3]
  Chromatophore response (cell spans the chromatophore columns, cell type not assigned): Blocks norepinephrine
  Threshold concentration PPB: X (key: X=1 to 100 PPB; XX=100 to 1000 PPB)

## C=C[C@H]1C[N@@]2CC[C@H]1C[C@H]2[C@H](O)c1ccnc2ccc(OC)cc12 [Quinine sulfate]
[4]
  Chromatophore response 2-Cell Cytosensor (second cell type included): Normal

## c1ccc2c(CC3=NCCN3)cccc2c1 [Naphazoline]
[2]
  Chromatophore response Erythrophores: Aggr.

## COC(=O)[C@@H]1[C@H]2C[C@H]3c4[nH]c5ccccc5c4CCN3C[C@@H]2CC[C@@H]1O [Yohimbine]
[3]
  Chromatophore response (cell spans the chromatophore columns, cell type not assigned): Blocks norepinephrine
  Threshold concentration PPB: X (key: X=1 to 100 PPB; XX=100 to 1000 PPB)

## [Pb] [Pb]
[3]
  Chromatophore response (cell spans the chromatophore columns, cell type not assigned): Imp. (FS)

## C[N+](C)(C)CCOC(N)=O [Carbachol]
[5]
  Chromatophore response 2-Cell Cytosensor (second cell type included): Erythr. Aggr.

## NCCc1c[nH]c2ccc(O)cc12 [Serotonin]
[6]
  Chromatophore response Melanophores: Partial

## Penicillin
[7]
  Chromatophore response 2-Cell Cytosensor (second cell type included): Normal

## Cholera toxin
[8]
  chromatophore pigment response: Pigment aggregation is evident
  effect of pre-incubation on norepinephrine-induced pigment aggregation: impaired pigment aggregation in response to NE
[9]
  lowest concentration at which inhibition of norepinephrine induced pigment aggregation is detected: 1 ng/m
[10]
  color class of chromatophores with selective sensitivity: erythrophores
[3]
  Threshold concentration PPB: X (key: X=1 to 100 PPB; XX=100 to 1000 PPB)
[11]
  change of appearance / color of chromatophores: change the appearance
  erythrophore response upon challenge by norepinephrine: impaired

## C=C(C=O)C[C@@H]1C[C@H](O)[C@]2(C)O[C@@H]3C[C@@H]4O[C@@H]5C[C@]6(C)O[C@]7(C)CC[C@@H]8O[C@@H]9C[C@]%10(C)O[C@@H]%11C(C)=CC(=O)O[C@H]%11C[C@H]%10O[C@H]9C[C@@H](C)[C@H]8O[C@H]7C[C@H]6O[C@H]5C/C=C\[C@H]4O[C@H]3C[C@H]2O1 [Brevetoxin]
[3]
  Chromatophore response (cell spans the chromatophore columns, cell type not assigned): Aggr.

## Mevinphos
[6]
  Chromatophore response Melanophores: Imp.
[2]
  Chromatophore response Erythrophores: Imp. (FS)
[12]
  Chromatophore response Iridophores: Hue change, then Imp.
[3]
  Threshold concentration PPT: X (key: X=1 PPT or higher)

## C=C[C@@]1(C)CC(=O)[C@]2(O)[C@@]3(C)[C@@H](O)CCC(C)(C)[C@@H]3[C@H](O)[C@H](OC(C)=O)[C@@]2(C)O1 [Forskolin]
[10]
  concentration at which chromatophores respond: 10 mM

## COP(=O)(OC)OC=C(Cl)Cl [Dichlorvos]
[3]
  Threshold concentration PPT: X (key: X=1 PPT or higher)

## [H]/N=C(/N)N[C@H]1[C@H](O)[C@@H](O)[C@H](O[C@@H]2O[C@@H](C)[C@](O)(C=O)[C@H]2O[C@@H]2O[C@@H](CO)[C@H](O)[C@@H](O)[C@@H]2NC)[C@@H](N/C(N)=N\[H])[C@@H]1O [Streptomycin]
[7]
  Chromatophore response 2-Cell Cytosensor (second cell type included): Normal

## c1cc2c3c(cccc3c1)CC2 [Acenapthene]
[3]
  Chromatophore response (cell spans the chromatophore columns, cell type not assigned): Imp.

## CCN(CC)CCCC(C)Nc1ccnc2cc(Cl)ccc12 (stereo not drawn) [Chloroquine]
[4]
  Chromatophore response 2-Cell Cytosensor (second cell type included): Normal

## CCn1cc(C(=O)O)c(=O)c2ccc(C)nc21 [Nalidixic acid]
[7]
  Chromatophore response 2-Cell Cytosensor (second cell type included): Normal

## O=C(O)c1ccccc1O [Salicylate]
[3]
  Chromatophore response (cell spans the chromatophore columns, cell type not assigned): Imp. (FS)

## [Ni] [Ni]
[3]
  Chromatophore response (cell spans the chromatophore columns, cell type not assigned): Imp. (FS)

## [Ag] [Ag]
[3]
  Chromatophore response (cell spans the chromatophore columns, cell type not assigned): Imp. (FS)

## C[C@]12CCC(=O)C=C1CC[C@@H]1[C@@H]2[C@@H](O)C[C@@]2(C)[C@H]1CC[C@]2(O)C(=O)CO [Hydrocortisone]
[6]
  Chromatophore response Melanophores: Hyp.D.
[13]
  minimal effective concentration: 1 to 100 µg/mL

## CC(=O)OCOC(=O)CN(CC(=O)OCOC(C)=O)c1ccccc1OCCOc1ccccc1N(CC(=O)OCOC(C)=O)CC(=O)OCOC(C)=O [BAPTA/AM]
[1]
  erythrophore pigment response: pigment dispersion

## N [Ammonium]
[3]
  Chromatophore response (cell spans the chromatophore columns, cell type not assigned): Imp. (FS)

## COc1ccc(CCN(C)CCCC(C#N)(c2ccc(OC)c(OC)c2)C(C)C)cc1OC (stereo not drawn) [Verapamil]
[1]
  erythrophore pigment response: rapid dispersion; also recorded: disperse almost as completely as possible; also recorded: pigment dispersion; also recorded: larger dispersion

## CN(C)[C@@H]1C(O)=C(C(N)=O)C(=O)[C@@]2(O)C(O)=C3C(=O)c4c(O)cccc4[C@@](C)(O)[C@H]3C[C@@H]12 [Tetrasycline]
[7]
  Chromatophore response 2-Cell Cytosensor (second cell type included): Normal
[3]
  Response time Hr.: XX (key: X=1-6 hr; XX=6-24 hr)
  Threshold concentration PPM: X (key: X=1 to 100 PPM; XX=100 to 1000 PPM)

## MSH
[6]
  Chromatophore response Melanophores: Disp.
[10]
  concentration at which chromatophores respond: 1e-06 mM
[12]
  Chromatophore response Iridophores: Hue changes (isolated
[3]
  Threshold concentration PPB: X (key: X=1 to 100 PPB; XX=100 to 1000 PPB)

## Cc1ccc(N(CC2=NCCN2)c2cccc(O)c2)cc1 [Phentolamine]
[3]
  Chromatophore response (cell spans the chromatophore columns, cell type not assigned): Blocks norepinephrine
  Threshold concentration PPB: XX (key: X=1 to 100 PPB; XX=100 to 1000 PPB)

## [Cu] [Cu]
[3]
  Chromatophore response (cell spans the chromatophore columns, cell type not assigned): Imp. (FS)

## Cn1c(=O)c2c(ncn2C)n(C)c1=O [Caffeine]
[10]
  concentration at which chromatophores respond: 0.1 mM

## OO [Hydrogen peroxide]
[3]
  Chromatophore response (cell spans the chromatophore columns, cell type not assigned): Imp. (FS)

## C[C@@H]1[C@H](O)[C@@H](C)/C=C/C=C/C=C/C=C/C=C/C=C/C=C/[C@H](O[C@@H]2O[C@H](C)[C@@H](O)[C@H](N)[C@@H]2O)C[C@@H]2O[C@](O)(C[C@@H](O)C[C@@H](O)[C@H](O)CC[C@@H](O)C[C@@H](O)CC(=O)O[C@H]1C)C[C@H](O)[C@H]2C(=O)O [Amphotericin B]
[14]
  Chromatophore response 2-Cell Cytosensor (second cell type included): Normal

## CCCCCCC(C)(C)c1ccc([C@@H]2C[C@H](O)CC[C@H]2CCCO)c(O)c1 [Cannabinoid CP-55940, CP-55940]
[13]
  minimal effective concentration: 100 to 1000 µg/mL
[3]
  Response time Hr.: X (key: X=1-6 hr; XX=6-24 hr)

## Cc1cc(C(C)(C)C)c(O)c(C)c1CC1=NCCN1 [Oxymetazoline]
[2]
  Chromatophore response Erythrophores: Aggr.

## NC[C@H](O)c1ccc(O)c(O)c1 [Norepinephrine]
[8]
  chromatophore pigment response: aggregation of chromatophore pigment is apparent
[2]
  Chromatophore response Erythrophores: Aggr.
[3]
  Threshold concentration PPB: X (key: X=1 to 100 PPB; XX=100 to 1000 PPB)
[11]
  change of appearance / color of chromatophores: change the appearance

## O=S(=O)(F)Cc1ccccc1 [PMSF]
[6]
  Chromatophore response Melanophores: Imp.

## CCOP(=O)(OCC)Oc1ccc([N+](=O)[O-])cc1 [Paraoxon]
[3]
  Threshold concentration PPM: XX (key: X=1 to 100 PPM; XX=100 to 1000 PPM)

## COP(=O)(OC)C(O)C(Cl)(Cl)Cl (stereo not drawn) [Trichlorfon]
[3]
  Threshold concentration PPT: X (key: X=1 PPT or higher)

## c1ccc2c(c1)CCCC2C1=NCCN1 (stereo not drawn) [Tetrahydrozoline]
[2]
  Chromatophore response Erythrophores: Aggr.

## Nc1ncnc2c1ncn2[C@@H]1O[C@H](COP(=O)(O)OP(=O)(O)OP(=O)(O)O)[C@@H](O)[C@H]1O [ATP]
[5]
  Chromatophore response 2-Cell Cytosensor (second cell type included): Erythr. Aggr.

## Substance P (RPKPQQFFGLM; ends and bridges not checked; UniProt P20366 58-68, looked up)
[12]
  Chromatophore response Iridophores: Hue changes (FS)
